Measurements published in patent EP0087858A1, “New chromanone compounds and pharmaceutical compositions containing them” (priority 1982, dated 1983).

Key:
[1] = Acute toxicity; settings: mouse, in vivo, male dd mice, deaths up to 72 hours
Procedure: Groups of 10 male dd mice weighing some 18 g were orally or intraperitoneally administered the examined drugs and the number of death up to 72 hours later was recorded.
An example of results is shown in Table 1: the drugs are those numbered correspondingly above. Administration is oral (p.o.) or intraperitoneal (i.p.)

[2] = system: dd mice; assay: Analgesic effects by a modified Haffner method; assay type: in vivo; settings: 2 mg/kg morphine hydrochloride s.c. 30 minutes later, tail squeeze
Procedure: Groups of 10 dd mice were orally administered the examined drugs and 30 minutes later 2 mg/kg of morphine hydrochloride, the threshold dose, was injected subcutaneously. At 15, 30, 45 and 60 minutes thereafter, the root of mouse's tail was squeezed with a Kocher's forceps.

[3] = system: male dd mice; assay: Analgesic effects by acetic acid writhing test; assay type: in vivo; settings: inhibition rate of stretching after 0.6% acetic acid i.p.
Procedure: 30 minutes after the examined drugs were given orally, 0.1 ml/10 g of 0.6% acetic acid solution was intraperitoneally administered to groups of 10 male dd mice weighing some 18 g. The number of stretching was calculated during an observation period of 15 to 20 minutes after acetic acid treatment. The average inhibition rate of stretching among 8 animals was regarded as the inhibition rate of the drug, excluding 2 animals showing maximum and minimum number of stretching.

[4] = system: plantaroedema induced by carrageenin; assay: Inhibition of plantaroedema induced by carrageenin; assay type: in vivo; settings: rats, 60 minutes before 0.1 ml of 1% carrageenin into the sole
Procedure: 60 minutes after the drugs had been orally administered to groups of rats, 0.1 ml of 1% carrageenin solution was injected subcutaneously into the sole. The rate of increase in volume of the hind food compared with volume before carrageenin treatment was regarded as oedema rate.

[5] = system: gastric irritation/ulceration; assay: Gastric irritation; assay type: in vivo; settings: rats, 8 hours after dosing, aspirin (150 mg/kg) or indomethacin (40 mg/kg) taken as 100%
Procedure: 8 hours after the examined drugs were orally administered to groups of rats, degree of gastric irritation/ulceration produced by the drug is compared with that produced by aspirin (150 mg/kg) or indomethacin (40 mg/kg). Percentage rate of production of gastric irritation, compared with the control drug, (that produced by aspirin or indomethacin was taken as 100%), was regarded as the gastric irritation rate.

[6] = system: stomach and intestinal tracts; design: species or system rats; settings: rat, in vivo, po

Cc1c(N(C)C)c(=O)n(-c2ccccc2)n1C [Aminopyrine, reference compound]
mortality at 72 h ([1]; po, 600 mg/kg p.o.): 20%
analgesic effect (%) ([2]; 50 mg/kg orally): 20%
analgesic effect (%) ([2]; 100 mg/kg orally): 35%
analgesic effect (%) ([3]; 50 mg/kg orally): 17%
analgesic effect (%) ([3]; 100 mg/kg orally): 57%

O=C(O)Cc1ccc2c(c1)C(=O)CCO2 [Compound 1, (4-chromanon-6-yl) acetic acid]
analgesic effect (%) ([2]; 50 mg/kg orally): 15%
analgesic effect (%) ([2]; 100 mg/kg orally): 30%
analgesic effect (%) ([3]; 50 mg/kg orally): 31%
analgesic effect (%) ([3]; 100 mg/kg orally): 45%

CC1(C)CC(=O)c2cc(CC(=O)O)ccc2O1 [Compound 2, (2,2-dimethyl-4-chromanon-6-yl) acetic acid]
mortality at 72 h ([1]; po, 600 mg/kg p.o.): 0%
analgesic effect (%) ([3]; 50 mg/kg orally): 13%
analgesic effect (%) ([3]; 100 mg/kg orally): 62%
oedema rate (%) ([4]; 100 mg/kg orally): 46%

CC(C(=O)O)c1cc(Cl)c2c(c1)C(=O)CC(C)(C)O2 (stereo not drawn) [Compound 3, 2-(8-chloro-2,2-dimethyl-4-chromanon-6-yl)propionic acid]
mortality at 72 h ([1]; po, 400 mg/kg p.o.): 0%
analgesic effect (%) ([2]; 50 mg/kg orally): 20%
analgesic effect (%) ([2]; 100 mg/kg orally): 25%
analgesic effect (%) ([3]; 50 mg/kg orally): 27%
analgesic effect (%) ([3]; 100 mg/kg orally): 59%
oedema rate (%) ([4]; 100 mg/kg orally): 48%

CC(C(=O)O)c1ccc2c(c1)C(=O)CC(C)(C)O2 (stereo not drawn) [Compound 4, 2-(2,2-dimethyl-4-chromanon-6-yl)propionic acid]
mortality at 72 h ([1]; ip, 200 mg/kg i.p.): 0%
mortality at 72 h ([1]; po, 300 mg/kg p.o.): 0%
oedema rate (%) ([4]; 50 mg/kg orally): 48%
gastric irritation rate(%) ([5]; 50 mg/kg orally): 8%

CC(C(=O)O)c1cc(Cl)c2c(c1)C(=O)CCO2 (stereo not drawn) [Compound 5, 2-(8-chloro-4-chromanon-6-yl)propionic acid]
mortality at 72 h ([1]; po, 400 mg/kg p.o.): 0%
mortality at 72 h ([1]; po, 800 mg/kg p.o.): 0%
analgesic effect (%) ([2]; 50 mg/kg orally): 20%
analgesic effect (%) ([2]; 100 mg/kg orally): 45%

CC(C(=O)O)c1ccc2c(c1)C(=O)C(C)(C)O2 (stereo not drawn) [Compound 6, 2-(2,2-dimethyl-2,3-dihydrobenzofuran-3-one-5-yl)propionic acid]
mortality at 72 h ([1]; ip, 200 mg/kg i.p.): 0%
mortality at 72 h ([1]; po, 300 mg/kg p.o.): 0%
analgesic effect (%) ([2]; 50 mg/kg orally): 20%
analgesic effect (%) ([2]; 100 mg/kg orally): 40%
oedema rate (%) ([4]; 50 mg/kg orally): 34%
oedema rate (%) ([4]; 100 mg/kg orally): 53%
gastric irritation rate(%) ([5]; 100 mg/kg orally): 25%

CC(C)Cc1ccc(C(C)C(=O)O)cc1 (stereo not drawn) [Ibuprofen, reference compound]
oedema rate (%) ([4]; 100 mg/kg orally): 54%

CCCCC1C(=O)N(c2ccccc2)N(c2ccccc2)C1=O [Phenylbutazone, reference compound]
findings in sections of the stomach and intestinal tracts [6]: mucosal disorder or ulcer formation
mortality at 72 h ([1]; po, 400 mg/kg p.o.): 30%
oedema rate (%) ([4]; 50 mg/kg orally): 33%
oedema rate (%) ([4]; 100 mg/kg orally): 50%
